Data as given in patent US5728580A, “Methods and culture media for inducing single cell suspension in insect cell lines” (Cornell Research Foundation, Inc., priority 1996, dated 1998).

Key:
[1] = test system: AcMNPV binding to TN5B1-4 cells; test: Binding of [3H]thymidine-labeled AcMNPV budded virus to TN5B1-4 cells; type: cell-based; conditions: for Virus Binding: 30 min; for Binding, A. Binding in Presence of Polyanions: 5 × 10^6 cells/ml for 30 min, control is binding in absence of polyanion; for Binding, C. Pretreatment of Cells: cells pretreated 3 h, washed once, control is untreated cells; for Binding, C. Pretreatment of Cells / Binding, B. Pretreatment of Virus: binding 1 h without polymer; for Binding, B. Pretreatment of Virus: virus pretreated 2 h, pelleted, control is untreated virus
TN5B1-4 cells [2] = test: Inducing single-cell formation of clumped TN5B1-4 cells in suspension culture; type: cell-based, Trichoplusia ni; conditions: for Inducing single-cell formation / dispersing clumped cells (in words): clumped suspension culture; for Inducing single-cell formation / dispersing clumped cells (in words) / Concentration adequate to maintain single-cell suspension: serum-free medium
[3] = test system: AcMNPV infection of TN5B1-4 cells; conditions: cited from earlier work
TN5B1-4 cells [4] = conditions: for Toxic above this level: tn5b1-4 cells
Procedure: Three different molecular weights of dextran sulfate, derived from dextran of MW 5000, 20000, 500000, were evaluated.
Compounds were evaluated for their ability to induce single cell suspension in 50-ml spinner flasks at 160 rpm. Control cells were passaged at least 10 times in suspension before they were used in any experiments. […] A qualitative score for reduction in clumping relative to control cells was assigned to cells grown in the presence of test compound at the end of the third passage. The protocol for enzyme treatment was the same, but the seeding density was 1×10^6 cells/ml and cells were evaluated after 24 h.

[5] = test system: AcMNPV binding to SF21 cells; test: Binding of AcMNPV virus to SF21 cells; type: cell-based
Procedure: (§1) The inhibition of binding was further explored by considering the effect of increasing polyanion concentration on the binding of virus to TN5B1-4 and SF21. Less than 20 μg/ml of both dextran sulfate and heparin were required to attain maximum inhibition. […] Dextran sulfate reduced the binding of the virus to TN5B1-4 but not to SF21. […] The cell growth post-infection was used as a measure of virus infection since infection is known to inhibit cell division. Hereafter, synchronous infection is used to refer to infection with no measurable cell division post-infection.

[6] = test system: AcMNPV infection of SF21 cells; test: Viral infection inhibition in SF21; type: cell-based
Procedure: as §1

[7] = test system: AcMNPV infection of TN5B1-4 cells; test: Viral infection inhibition in TN5B1-4 (cell growth post-infection); type: cell-based; conditions: at concentrations required to induce and maintain single-cell suspension; MOI 0.1 to 20
Procedure: as §1
The cells were infected at MOI of 0.1, 0.5, 1, 5, 10, and 20 to determine the lowest MOI for synchoronous infection.

TN5B1-4 cells [8] = test: Growth kinetics of TN5B1-4 cells in spinner flasks; type: cell-based, Trichoplusia ni; design: dose or concentration left out as unconfirmed
Procedure: TN5B1-4 suspension cells were grown in 50-ml spinner flasks (Bellco Glass, Vineland, N.J.) with a working volume of 40 ml at 160 rpm. SF21 cells were grown in similar vessels at 130 rpm in Ex-Cell 400 medium. The screw caps of the flasks were replaced with silicone foam closures for better oxygen transfer. Cells were passaged every 3 days.
The growth of TN5B1-4 DS 5000 cells in suspension was scaled-up to a 1.25 L Celligen reactor agitated with a marine impeller at 90 rpm. The cells were subcultured three times in this reactor with no clump formation. The doubling time was 20 h and a maximum density of 6-7×10^6 cells/ml was reached.

[9] = 100 μg/ml, control = binding of virus to cells with no additive
[10] = 1000 μg/ml, control = binding of virus to cells with no additive
[11] = 25 μg/ml, control = binding of virus to cells with no additive

Substance: DEAE-dextran [DEAE dextran]
- Virus Binding ([1]; 5 μg/ml, control = binding of virus to cells with no additive): 74 ± 9 % of Control
- Inducing single-cell formation / dispersing clumped cells (in words) (TN5B1-4 cells [2]): ineffective

Substance: Heparin
- Concentration required to attain maximum inhibition of virus binding (threshold value) [1]: Less than 20 μg/ml
- Virus Binding [1, 9]: 63 ± 3 % of Control
- Fold higher concentration required to induce single-cell suspension relative to dextran sulfate (TN5B1-4 cells [2]): 20 fold
- Inhibition of viral infection (as known) [3]: known to seriously inhibit infection

Substance: Pluronic F68
- Virus Binding [1, 10]: 98 ± 2 % of Control
- Inducing single-cell formation / dispersing clumped cells (in words) (TN5B1-4 cells [2]): ineffective

Substance: chondroitin disaccharides [Chondroitin sulfate disaccharides]
- Virus Binding [1, 9]: 99 ± 6 % of Control
- Inducing single-cell formation / dispersing clumped cells (in words) (TN5B1-4 cells [2]): did not disperse clumped cells

Substance: chondroitin sulfate
- Virus Binding [1, 9]: 94 ± 3 % of Control

Substance: dermatan sulfate
- Virus Binding [1, 9]: 65 ± 7 % of Control

Substance: dextran
- Virus Binding [1, 9]: 97 ± 2 % of Control
- Virus Binding ([1]; 100 μg/ml, polymer of MW 580 kd, control = no additive): 99 ± 3 % of Control
- Inducing single-cell formation / dispersing clumped cells (in words) (TN5B1-4 cells [2]): ineffective

Substance: dextran sulfate [dextran sulfate 500000]
- Toxic above this level (TN5B1-4 cells [4]): above 5 μg/ml

Substance: dextran sulfate [dextran sulfate II]
- Virus Binding [1, 11]: 82 ± 4 % of Control

Substance: dextran sulfate [dextran sulfate I]
- Concentration required to attain maximum inhibition of virus binding (threshold value) [1]: Less than 20 μg/ml
- Binding, A. Binding in Presence of Polyanions ([1]; 25 μg/ml): 42 ± 2 % of control
- Virus Binding [1, 11]: 42 ± 2 % of Control
- Binding, C. Pretreatment of Cells ([1]; 25 μg/ml): 93 ± 9 % of control
- Binding, B. Pretreatment of Virus ([1]; 25 μg/ml): 103 ± 3 % of control
- Reduction of the attachment rate constant ([1]; at concentration required to maintain single-cell suspension): six-fold
- Effect on binding of virus to SF21 [5]: did not affect binding
- Inducing single-cell formation in serum-containing media (TN5B1-4 cells [2]; serum-containing media, up to 300 μg/ml): complete elimination of clumping was not possible
- Concentration adequate to maintain single-cell suspension (TN5B1-4 cells [2]): 25 µg/mL
- Inhibition of viral infection in SF21 [6]: inhibited infection
- Inhibition of viral infection [7]: not severely inhibited
- Toxic at concentrations greater than (TN5B1-4 cells [4]): greater than 0.1%
- Effect on doubling time and maximum cell density (TN5B1-4 cells [8]): does not affect

Substance: fructose 6-phosphate
- Inducing single-cell formation / dispersing clumped cells (in words) (TN5B1-4 cells [2]): ineffective

Substance: fucoidan sulfate
- Virus Binding [1, 11]: 53 ± 1 % of Control
- Virus Binding [1, 9]: 53 ± 1 % of Control

Substance: glucose 6-phosphate
- Inducing single-cell formation / dispersing clumped cells (in words) (TN5B1-4 cells [2]): ineffective

Substance: heparin disaccharides
- Virus Binding [1, 9]: 103 ± 2 % of Control

Substance: hyaluronate
- Virus Binding [1, 9]: 99 ± 1 % of Control
- Inducing single-cell formation / dispersing clumped cells (in words) (TN5B1-4 cells [2]): did not induce single-cell formation

Substance: pentosan sulfate
- Virus Binding [1, 11]: 53 ± 3 % of Control
- Binding, A. Binding in Presence of Polyanions ([1]; 100 μg/ml): 55 ± 9 % of control
- Virus Binding [1, 9]: 55 ± 9 % of Control
- Binding, C. Pretreatment of Cells ([1]; 100 μg/ml): 96 ± 7 % of control
- Binding, B. Pretreatment of Virus ([1]; 100 μg/ml): 99 ± 4 % of control
- Concentration adequate to maintain single-cell suspension (TN5B1-4 cells [2]): 100 µg/mL
- Inhibition of viral infection [7]: not severely inhibited

Substance: polyphosphate
- Inducing single-cell formation / dispersing clumped cells (in words) (TN5B1-4 cells [2]): did not induce single-cell formation

Substance: polyvinyl sulfate
- Virus Binding ([1]; 10 μg/ml, control = binding of virus to cells with no additive): 52 ± 4 % of Control
- Binding, A. Binding in Presence of Polyanions ([1]; 25 μg/ml): 52 ± 4 % of control
- Virus Binding [1, 11]: 52 ± 1 % of Control
- Binding, C. Pretreatment of Cells ([1]; 25 μg/ml): 95 ± 6 % of control
- Binding, B. Pretreatment of Virus ([1]; 25 μg/ml): 96 ± 5 % of control
- Inducing single-cell formation / dispersing clumped cells (in words) (TN5B1-4 cells [2]): as effective as dextran sulfate
- Concentration adequate to maintain single-cell suspension (TN5B1-4 cells [2]): 25 µg/mL
- Inhibition of viral infection [7]: inhibited viral infection even at high MOI

Substance: protamine sulfate
- Virus Binding ([1]; 50 μg/ml, control = binding of virus to cells with no additive): virus ppt.
- Inducing single-cell formation / dispersing clumped cells (in words) (TN5B1-4 cells [2]): ineffective

Substance: sodium carboxymethylcellulose [sodium CMC]
- Virus Binding [1, 10]: 107 ± 1 % of Control
- Inducing single-cell formation / dispersing clumped cells (in words) (TN5B1-4 cells [2]): did not induce single-cell formation

Substance: sodium polyphosphoric acid
- Virus Binding [1, 9]: 98 ± 1 % of Control
- Inducing single-cell formation / dispersing clumped cells (in words) (TN5B1-4 cells [2]): did not induce single-cell formation

Substance: κ-carrageenan
- Virus Binding [1, 9]: 73 ± 6 % of Control

Substance: λ-carrageenan
- Virus Binding [1, 11]: 68 ± 3 % of Control
- Toxic above this level (TN5B1-4 cells [4]): > 25 µg/mL
